Measurements: patent US20250195499A1, “METHODS FOR PREVENTING OR TREATING CEREBROVASCULAR DISEASES OR TISSUE ISCHEMIA-REPERFUSION INJURY” (CO., LTD. OF JEAMOON TECHNOLOGY, priority 2022, published 2025)
Entries after “also recorded” stand apart in the source; their conditions may differ.

Columns and labels:
[1] = tested on: MCAO cerebral ischemia-reperfusion (IR) mice; assay: MCAO cerebral ischemia-reperfusion (IR) mouse model, infarct area by TTC staining; format: in vivo, C57BL/6J mice; settings: for Infarct area percentage (%) X ± SD: IR mice, po, QD, from 4 days before surgery, 1 h ischemia, 24 h reperfusion, IR model group 48.42 ± 24.21; for Infarcted area compared with the IR group mice (in words): oral administration
Experimental: A surgical incision was made in the neck to expose a left common carotid artery (CCA), an internal carotid artery (ICA), and an external carotid artery (ECA). A pre-made filament was inserted through the external carotid artery into the internal carotid artery and advanced to a middle cerebral artery (MCA), causing ischemia in a left brain region. After 60 minutes of occlusion, the filament was removed to achieve reperfusion in the left brain region. FIG. 5 is a schematic diagram illustrating the MCAO cerebral ischemia model using the intraluminal filament approach.
1. Animal anesthesia and neck preparation: the mice were anesthetized by inhalation of 2% isoflurane gas. After muscle relaxation, the four limbs of the mice were fixed to an operating table with 3M medical tape. Depilatory cream was used to remove the hair on a side of the neck, and erythromycin eye ointment was applied to the eyeballs of the mice to prevent eye dryness.
2. Surgical incision: the neck skin was disinfected sequentially with iodophor and 75% alcohol cotton balls. A 3 cm incision was made along the midline of the neck. Under a stereomicroscope, the subcutaneous tissue and fat were bluntly dissected, the superficial fascia and platysma were incised to expose the deep fascia of the neck and the anterior tracheal muscle. After the anterior tracheal muscle was exposed, the deep cervical fascia was torn along an anterior edge of the left sternocleidomastoideole, exposing the sternocleidomastoideole, which was then pulled posteriorly. The dissection continued downward along the sternocleidomastoideole until the deeper carotid sheath was exposed.
3. Vessel exposure and isolation: while avoiding compression of the mouse trachea, the carotid sheath was incised, and the common carotid artery (CCA) was isolated, taking care not to damage the vagus nerve running alongside in the sheath, as simulation or injury to the nerve may cause sudden respiratory arrest in the animal. The dissection continued upward along the common carotid artery, and the external carotid artery was identified at an upper edge of the thyroid cartilage. […] A proximal end of the external carotid artery was gently lifted to expose the internal carotid artery located laterally and inferiorly.
4. […] The internal carotid artery was temporarily clamped with a microvascular clip. […] The branch vessels were coagulated using an electrocautery pen. A distal end of the external carotid artery was permanently ligated with a 6-0 silk ligature, while the proximal end was looped for later use.
5. Filament insertion: a small incision was made at a ligated distal end of the external carotid artery, and the filament was threaded through the incision and tied with the pre-prepared loop ligature. The incision was cut off, and the filament was adjusted and threaded into the internal carotid artery. […] The ligature was tightened to fix the filament and timing started immediately.
6. After suturing the skin, anesthesia was discontinued. Following 60 minutes of ischemia, the filament was removed to complete cerebral ischemia-reperfusion.
7. Close the incision: the incision was closed using interrupted 4-0 sutures, disinfected with iodophor, and 3 mL of saline was injected intraperitoneally for rehydration. Postoperative analgesia jelly was provided, and the mice were kept warm and monitored continuously until they recover from anesthesia.
C57BL/6J male mice, aged 8 weeks, were acclimatized for 1 week and then randomly assigned to 7 groups. Except for eight mice in the blank control group (i.e., the sham-operated control group), the remaining mice underwent MCAO surgery to induce cerebral ischemia and were randomly divided into 6 groups, including an IR model group, a TAK875 group (12 mice per group), and four LY2922470 groups with different concentrations (8 mice per group). […]

[2] = tested on: MCAO cerebral ischemia-reperfusion (IR) mice; settings: male, C57BL/6J, mouse, in vivo, 5 days

CC#C[C@@H](CC(=O)O)c1ccc(OCc2ccc(CN3CCCc4cccc(OC)c43)s2)cc1 [LY2922470]
Infarct area percentage (%) X ± SD ([1]; LY2922470 10 mg/kg): 26.77 ± 14.54 (*) % | Infarct area percentage (%) X ± SD ([1]; LY2922470 20 mg/kg): 30.55 ± 16.52% | Infarct area percentage (%) X ± SD ([1]; LY2922470 40 mg/kg): 20.4 ± 6.88 (**) % | Infarct area percentage (%) X ± SD ([1]; LY2922470 80 mg/kg): 31.03 ± 17.8% | Infarcted area in the brain compared with the IR group mice (in words) ([1]; LY2922470 10 mg/kg): significantly reduced | Infarcted area in the brain compared with the IR group mice (in words) ([1]; LY2922470 40 mg/kg): significantly reduced | Infarcted area compared with the IR group mice (in words) ([1]; different doses of LY2922470 (10-80 mg/kg)): the infarcted area in the mice was reduced; also recorded: significantly decreased

Cc1cc(OCCCS(C)(=O)=O)cc(C)c1-c1cccc(COc2ccc3c(c2)OC[C@H]3CC(=O)O)c1 [TAK875]
Infarct area percentage (%) X ± SD ([1]; TAK875 30 mg/kg): 48.9 ± 25.13% | Infarcted area compared with the IR group mice (in words) ([1]; TAK875 30 mg/kg): no significant decrease in the size of the infarcted area | Time of death after reperfusion [2]: 18 h | Deaths after MCAO cerebral ischemia surgery ([2]; po, 30 mg/kg): one from the TAK875 group died
